Here are results for two compounds from patent publication US12415989B2, “Cell culture platform for single cell sorting and enhanced reprogramming of iPSCs” (Fate Therapeutics, Inc., priority 2010, dated 2025).

“Also recorded” adds a separate entry of the source.

Assay [1] relates to human pluripotent stem cells. Nature of the assay: Small molecule cocktails in single cell culture of human pluripotent stem cells on feeder free substratum. Type of assay: cell-based. The following applies: in combination with MEKi/TFGβi/GSKi. How it is done: FIGS. 1A-1E. The effects of various small molecule cocktails on single cell culture of human pluripotent stem cells on feeder free substratum. FIG. 1A. Different morphologies were evident when single cell dissociated human pluripotent stem cells were treated with various combinations of small molecules in a feeder free environment. Medium containing a combination of ROCKi/MEKi/TGFβi/GSKi delivered robust growth and viability of human pluripotent stem cells. FIG. 1B. While some small molecules supported maintenance of pluripotent stem cells, i.e., MEKi/TGFβi/GSKi, and others facilitated single cell dissociation of pluripotent stem cells, i.e., Rocki, the unique combination of these small molecules, i.e., ROCKi/MEKi/TGFβi/GSKi, supported single cell dissociation while maintaining undifferentiated status as indicated by highly proliferative colonies that were positive for pluripotent marker Tra181. Tra181, red; DAPI, blue. FIG. 1C. The combination of MEKi/TFGβi/GSKi/ROCKi supported viability and proliferation when hiPSCs were seeded at 1×10^5 cells on Matrigel and scored 4 days later for number of viable cells and percent viability as measured by trypan blue. FIG. 1D. […] FIG. 1E. […]

For assay [2], the system named is human fibroblasts. Nature of the assay: Reprogramming of fibroblasts to iPSCs: kinetics and efficiency of colony formation. Type of assay: cell-based. As to conditions: additive used in the culture system for 3 days.
Method: To initiate the reprogramming process, ectopic expression of reprogramming factors (in variable combinations of human Oct4, Sox2, Klf4, c-Myc, Lin28, and Nanog) was achieved using lentiviral transduction or other methods such as protein only treatment. In most cases, the starting cells were plated at 10% confluency (i.e., 1×10^5 cells per well of a 6-well plate) on a gelatin (Mediatech) coated surface. For the method of viral infection, freshly collected lentivirus was added to the starting cells at a dilution of 1:2, supplemented with 4 μg/mL polybrene (Millipore), and spin-infected at 650 g at 32° C. for 1.5 hrs. The culture was transferred to 37° C. and 5% CO2 for an additional 7 hrs. After the completion of the incubation, the cells were washed three times with PBS and fed with fresh medium. With difficult to infect cells, such as IMR90 fibroblasts in feeder-free culture systems, this process was repeated one more time, 48 hrs post the initial infection. For non-genetic methods of inducing reprogramming such as the use of direct protein application to the cells, protein mixtures, or cocktails, consisting of reprogramming factors at 8 μg/mL were added to cell solution and maintained for 24 hrs prior to medium change. This step was repeated for an additional two to four times. […]

As to `O=C(NCc1ccccc1)c1csc(Nc2ccncn2)n1` [Thiazovivin], in assay [1] (compared with Y27632), the “maintenance of cells in an undifferentiated state (SSEA4 and Tra181 surface expression)” value was “preferred over Y27632; also recorded: better supports the maintenance of cells in an undifferentiated state”. Further, the colony morphology entry in assay [1] (relative to Y27632) is “more compact in morphology”. On to fibronectin, for which the post-sort seeding result in assay [2] is “improved post-sort seeding”.
